Reference: patent publication US20180168215A1, “NUTRITIONAL COMPOSITIONS CONTAINING INOSITOL AND USES THEREOF” (Mead Johnson Nutrition Company, priority 2016, published 2018)

Experiments:
[1] = test system: hippocampal cultures from embryonic E18 rats; assay: Synaptogenesis in embryonic neuronal culture, quantitative immunostaining for Bassoon, Homer and MAP2; type: cell-based, rat
From the text: Example 4 illustrates that supplementation with inositol produces strong synaptogenic effects. Nerve cells communicate with each other in the brain through specialized junctions, called synapses. These junctions start to form in the human brain before birth and continue to develop at a rapid rate in the early postnatal period. Changes in this synaptogenic process impair the wiring of the brain and can cause developmental disorders. While effects related to caloric intake and selected nutrients on general brain function have been characterized, limited information exists on the specific roles of nutrients and natural nutrients in synapse formation. Accordingly, Example 4 illustrates the effects of inositol on hippocampal neurons and analyzed them by quantitative immunostaining for synaptic markers. Dissociated neuronal cultures were prepared from rat hippocampus and used in this culture system. It was observed that neurons undergo most rapid synaptogenesis at or by day 14 in vitro (14DIV). By day 21 in vitro (21 DIV), most neurons have become mature and synapse formation occurs at a slower rate. Accordingly, testing at day 14 or 21 in vitro therefore allows for distinguishing nutrient effects at different developmental stages. The neurons were grown in either in standard neurobasal NB medium which contains 40 uM inositol according to the manufacturer; or in 200 μM inositol using custom made medium from LifeTechnology that lacks inositol and that was supplemented with inositol to 200 μM; or without inositol using just the custom made medium from the same manufacturer that lacks inositol. The neurons and synapses were determined by staining Bassoon as a presynaptic active zone marker in green fluorescence, Homer as a postsynaptic marker in red, and MAP2 as a dendrite marker in blue. […] Quantitively, increasing inositol to higher concentrations further promoted its synaptogenic effects (see FIG. 4D) at pre-synaptic sites. The pre-synapses were measured by quantifying the number of bassoon in the puncta per 10 micron dendrite. […] The results were determined by quantitative immunostaining for the presynaptic marker (Bassoon) and the excitatory postsynaptic (Homer). (See. FIG. 4E). Indeed, as shown in FIGS. 4A-4C, hippocampal cultures from embryonic E18 rats grown at the indicated inositol concentrations were analyzed by quantitative immunostaining. FIG. 4A illustrates neurons grown under control conditions and stained for the presynaptic marker Bassoon (in green), the postsynaptic scaffold protein Homer (in red), and the dendritic marker MAP2 (in blue). FIG. 4B illustrates neurons grown with supplemented inositol at 200 μM from 4-14 days in vitro. FIG. 4C illustrates neurons grown without inositol. […] Additionally, FIG. 5 illustrates that treatment with inositol promotes the alignment of pre- and post-synaptic sites. […] Hippocampal cultures from embryonic rats were analyzed by quantitative immunostaining. […] In brief, the presynaptic markers were stained with […] and are shown in green and the post-synaptic markers were stained with homer in and are shown in red. The co-localization of pre- and post-synapse was determined the appearance of a yellow signal, which is produced when green color mixes with red. The quantification was analyzed by using Imag J software and co-localization was calculated by counting the numbers of yellow puncta per […] dendrite. Briefly, hippocampal cultures from embryonic rats were analyzed by quantitative immunostaining. […] The pre-synapse size was determined by the puncta size of bassoon; while the post-synapse size by that of homer. The histochemistry images were analyzed by using Image J software.

E18 hippocampal neurons = assay: Axon growth in microfluidic devices, immunohistochemistry with β-tubulin III; type: cell-based; settings: addition of 600 μM inositol vs inositol free media
From the text: Example 3 illustrates that inositol exposure increases neuronal axon growth. Generally, an axon is a long, slender projection of a neuron that conducts electrical impulses away from the neuron's cell body. Myelinated axons are generally known as nerve fibers. Axons make contact with other neurons at synapses. Therefore, the healthy status of a neural axon is fundamentally important for proper brain function. The integrity and growth of axons can be measured by immunohistochemistry with β-tubulin III. Indeed, illustrated herein, the absence of inositol causes axon growth to stop and truncate prematurely; while supplementation of inositol provides healthy growth of neuronal axons. […] The axons of hippocampal neurons lost continuity and disintegrated. […] Taken together, inositol is essential for axon development and higher concentrations of inositol benefits the extension of axons.

rat hippocampal neurons = assay: FM dye release on electrical field stimulation of neurons in microfluidic devices; type: cell-based; settings: for releasing FM Dye as an indicator of neural transmitter release: 9DIV
From the text: Example 1 illustrates that inositol has a does dependent effect on neurotransmission. Due to the continuum of synapse development in vivo, it is difficult to quantitatively assess synapse development. However, in order to provide at time stamp for synapse development, Example 1 is directed to a PDL-coated bead in a culture medium designed to induce synaptic formation. […] By adding the PDL-coated beads to the axonal compartment of the microfluidic compartment, it allows for the visualization of presynaptic terminal development without the overwhelming signal from somata or dendrites. Indeed, this experimental set-up allows for the subjection of distinct compartments to nutrients of interest. The method used herein is described in the reference, Taylor, A. M. et al. “A microfluidic culture platform for CNS axonal injury regeneration and transport.” Nat Methods, 2005. 2(8): p. 599-605, which is incorporated by reference. Briefly, the microfluidic chip contains four chambers, two at the left side and two at the right connected by microgrooves in the center. The cortical and hippocampal dissociated neurons from embryonic rat (E18) and mouse (E17) were seeded in the left (somal) side of the chambers with a density of approximately 3×10^6 cells/ml, yielding approximately 3,000 cells in the somal side of the chamber. The PDL-coated nanobeads were added to the right side of the chamber. In each testing condition, the culture medium contains different nutrient. The immunohistochemistry analysis was performed in order to assess the impact on synaptic development provided by the nutrients. The cultures were fixed using 4% paraformaldehyde for 30 min at room temperature. The cultures then were washed twice with phosphate-buffered saline (PBS) for 5 min, and then permeabilized using PBS with 0.2% Triton X-100 for 30 min. To block nonspecific binding, PBS with 0.2% Triton X-100 and 10% goat serum was used. The primary antibodies were exposed to PBS with 0.2% Triton X-100 and 5% goat serum at 4° C. overnight, followed by brief rinsing of the cultures 3 times for 10 min. They were then incubated them with secondary antibody (conjugated with Alexa Fluor 488 or 568) in PBS for 1 h. The images were taken and quantified by using confocal microscopy. At embryonic Day 18, rat hippocampal neurons were plated on to microfluidic devices and inositol was added to both somal and axonal compartments from second day in vitro. Cultures were exposed with different concentrations of inositol at 200 μM, 600 μM, 1200 μM, or the control 40 μM, every 3 days by completely changing the media every three days. At 9 days in vitro (9DIV) the cultures were loaded with FM dye and electrical field stimulation of somal compartments was performed on each for about one minute.

hippocampal neurons = assay: PDL-coated bead presynaptic formation, immunostaining for synapsin1, bassoon and β-tubulin III; type: cell-based, rat
From the text: Example 1 illustrates that inositol has a does dependent effect on neurotransmission. Due to the continuum of synapse development in vivo, it is difficult to quantitatively assess synapse development. However, in order to provide at time stamp for synapse development, Example 1 is directed to a PDL-coated bead in a culture medium designed to induce synaptic formation. […] By adding the PDL-coated beads to the axonal compartment of the microfluidic compartment, it allows for the visualization of presynaptic terminal development without the overwhelming signal from somata or dendrites. Indeed, this experimental set-up allows for the subjection of distinct compartments to nutrients of interest. The method used herein is described in the reference, Taylor, A. M. et al. “A microfluidic culture platform for CNS axonal injury regeneration and transport.” Nat Methods, 2005. 2(8): p. 599-605, which is incorporated by reference. Briefly, the microfluidic chip contains four chambers, two at the left side and two at the right connected by microgrooves in the center. […] The images were taken and quantified by using confocal microscopy. […] The measurements were quantified and subjected to statistical analysis by two-way ANOVA.

[2] = test system: Hippocampal cultures from embryonic rats; assay: Inositol plus DHA, presynaptic Bassoon puncta by quantitative immunostaining; type: cell-based, rat; settings: compared to a DMSO control; FIG. 7
Procedure: Example 5 illustrates synergistic effect of inositol and DHA. FIG. 7 illustrates the effect of inositol in combination with DHA for presynaptic development. Hippocampal cultures from embryonic rats were analyzed by quantitative immunostaining. […] (See FIG. 7).

`O[C@H]1[C@H](O)[C@@H](O)[C@H](O)[C@@H](O)[C@H]1O` [inositol] was tested. Which “pre-synaptic puncta density (number of bassoon puncta per 10 micron dendrite)” value ([1]; compared to control as well as DHA at 20 μM, FIG. 4D) did it give?
Its value is “increase the pre-synaptic puncta density in a statistically significant manner”.

What about the “post-synaptic sites as measured by post-synaptic marker (Homer) density” value ([1]; higher concentrations of inositol, compared to the control and DHA at 20 μM, FIG. 4E) of the same molecule?
Its value is “enhance post-synaptic sites”.

What about the “overall health of neuron” value ([1]; increasing inositol) of the same molecule?
Its value is “promotes the overall health of neuron”.

What about the “density of pre- and post-synaptic specializations” value ([1]; increasing inositol from standard 40 μM to 200 μM) of the same molecule?
Its value is “substantially elevates the density of pre- and post-synaptic specializations”.

What about the “effect on synapse number relative to DHA” value ([1]; lowest tested concentrations of inositol) of the same molecule?
Its value is “effects comparable to DHA”.

And the “size of presynaptic sites (Bassoon puncta size)” value ([1]; supplementation from 4-14 days in vitro, FIG. 6A)?
The value was “increase the size of presynaptic sites”.

What about the “size of postsynaptic sites (Homer puncta size)” value ([1]; supplementation from 4-14 days in vitro, FIG. 6B) of the same molecule?
The value was “increase the size”.

And the “co-localization of pre-synaptic (Bassoon) with post synaptic (Homer) sites” value ([1]; treatment from 4-14 days in vitro, FIG. 5)?
Its value is “increased the extent to which pre-synaptic sites (as measured by Bassoon staining) co-localized with post synaptic sites”.

And the synapse number ([1]; treatment from 7-14 days in vitro)?
Its synapse number is “increased synapse number”.

What about the axon growth (E18 hippocampal neurons) of the same molecule?
Its axon growth is “restore and promote the healthy growth of axons”.

What about the “releasing FM Dye as an indicator of neural transmitter release” value (rat hippocampal neurons; 200 μM inositol vs control wells containing 40 μM inositol) of the same molecule?
Its value is “significant increases in releasing FM Dye”.

What about the “releasing FM Dye as an indicator of neural transmitter release” value (rat hippocampal neurons; 600 μM inositol vs control wells containing 40 μM inositol) of the same molecule?
Its value is “significant increases in releasing FM Dye”.

And the “neural transmitter releasing, consistency of results” value (rat hippocampal neurons; 600 μM inositol wells)?
Its value is “consistent and robust results with enhanced neural transmitter releasing”.

What about the “concentration at which the highest effects on FM dye releasing were observed” value (rat hippocampal neurons; tested 200, 600, 1200 μM, dose dependent, statistically significant) of the same molecule?
The value was 600 µM.

What about the “synapsin 1 and bassoon clustering at the bead-axon terminals” value (hippocampal neurons; 10DIV hippocampal neurons, FIGS. 2A and 2B) of the same molecule?
Its value is “increases synapsin 1 and bassoon clustering”.

And the presynaptic assembly (hippocampal neurons; inositol at 600 μM vs 40 μM control, FIG. 2A)?
Its presynaptic assembly is “significantly increases the presynaptic assembly”.

And the “presynaptic Bassoon puncta” value [2]?
The value was “increased the presynaptic Basson puncta”.
